# Tested on: JEG-3 (human placental choriocarcinoma cell line)
# Experiment: Oligo microarray gene expression in drug-treated JEG-3 (Cy5 treated / Cy3 control)
# Assay type: cell-based
# Details: treated at IC30, up-regulated gene
# Method: Thalidomide, valproic acid, and methotrexate were treated to human placental choriocarcinoma cell line at the concentrations determined above (Inhibition concentration: the concentration that can kill approximately 30% of the total cells, that is the concentration of 70% viability, IC30). mRNA was extracted from the drug treated cell line, followed by synthesis of cDNA which was labeled with Cy5. The non-treated control was labeled with Cy3. The fluorescence labeled cDNA was hybridized with 41K (thalidomide), 44K (valproic acid, methotrexate) human whole genome oligomicroarray chips (Agilent, USA), followed by fluorescent image scanning to analyze gene expression patterns (see FIG. 4). Volcano Plot of each substance was also attached. Y axis indicates probability (generally converted by −log 10). X axis indicates differential expression, which is presented by log-ratio.
# Total RNA was separated from the treated cell by using trizol reagent (Invitrogen Life Technologies, USA) according to the manufacture's instructions, followed by purification using RNeasy mini kit (Qiagen, USA). Genomic DNA was eliminated during RNA purification using RNase-free DNase set (Qiagen, USA).
# 30 μg of the total RNA obtained above and 2 μg (1 μg/μl) of oligo (dT) primer were mixed, followed by reaction at 65° C. for 10 minutes. Annealing was performed in ice right after the reaction. Reagents were prepared as shown in Table 1 for reverse transcription of the annealed RNA.
# The total RNA separated from the control group JEG-3 cells was labeled with Cy3-dUTP (green) and the total RNA separated from the experiment group JEG-3 cells treated with thalidomide, valproic acid and methotrexate was labeled with Cy5-dUTP (red). At this time, the two samples were mixed and purified by Microcon YM-30 column (Millipore, USA).
# Hybridization and washing were performed by the manufacturer's (GenoCheck, Korea) instructions. Particularly, hybridization was performed in a 62° C. oven for 12 hours. As a DNA microarray chip, 44 k whole human genome oligo microarray (Agilent, USA) was used. After washing (2 minutes with 2×SSC/0.1% SDS, three minutes with 1×SSC, 2 minutes with 0.2×SSC), the slide was dried by centrifugation at 800 rpm for 3 minutes.
# Hybridization image on the slide was scanned with Genepix 4000B (Axon Instruments, USA). Fluorescence image of the chip on which non-hybridized genes had been washed out was obtained by using laser fluorescence scanner. Green fluorescence image indicates the activity of gene specifically expressed in the control group and red fluorescence image indicates the activity of gene specifically expressed in the experimental group. […] Scanned image was analyzed by using GenePix 4.1 software (Axon Instruments, USA) to calculate gene expression rate.
# [1] = (j) Response to oxidative stress
# [2] = (k) common gene which has no function
compound,measurement,setting,value
"CCCC(CCC)C(=O)O [VPA, valproic acid]","Ratio of intermediate value, gene GSTM3 (NM_000849, GLUTATHION E S-TRANSFERASE M3 (BRAIN))",(h) Nervous system development,3.69
same,"Ratio of intermediate value, gene HEYL (NM_014571, HAIRY/ENHANCER-OF-SPLIT RELATED WITH YRPW MOTIF-LIKE)",(h) Nervous system development,2.13
same,"Ratio of intermediate value, gene IRS2 (NM_003749, INSULIN RECEPTOR SUBSTRATE 2)",(h) Nervous system development,2.09
same,"Ratio of intermediate value, gene KCNQ2 (NM_172109, POTASSIUM VOLTAGE-GATED CHANNEL, KQT-LIKE SUBFAMILY, MEMBER 2)",(h) Nervous system development,4.41
same,"Ratio of intermediate value, gene KDELC1 (NM_015831, ACETYLCHOLINESTERASE (YT BLOOD GROUP))",(h) Nervous system development,2.47
same,"Ratio of intermediate value, gene KIF5C (AB011103, KINESIN HEAVY CHAIN NEURON-SPECIFIC 2)",(h) Nervous system development,11.94
same,"Ratio of intermediate value, gene MAPT (NM_016835, MICROTUBULE-ASSOCIATED PROTEIN TAU)",(h) Nervous system development,3.18
same,"Ratio of intermediate value, gene MYLIP (NM_013262, MYOSIN REGULATORY LIGHT CHAIN INTERACTING PROTEIN)",(h) Nervous system development,2.88
same,"Ratio of intermediate value, gene NRXN3 (NM_004796, NEUREXIN 3)",(h) Nervous system development,2.25
same,"Ratio of intermediate value, gene PPIL6 (NM_000115, ENDOTHELIN RECEPTOR TYPE B)",(h) Nervous system development,3.13
same,"Ratio of intermediate value, gene PRPS1 (NM_002764, PHOSPHORIBOSYL PYROPHOSPHATE SYNTHETASE 1)",(h) Nervous system development,2.12
same,"Ratio of intermediate value, gene SCG10; SGC10; SCGN10 (S82024, STATHMIN-LIKE 2)",(h) Nervous system development,2.41
same,"Ratio of intermediate value, gene SDFR1 (NM_012428, NEURO-PLASTIN)",(h) Nervous system development,2.26
same,"Ratio of intermediate value, gene SELM (BX537571, FYN ONCOGENE RELATED TO SRC, FGR, YES)",(h) Nervous system development,3.34
same,"Ratio of intermediate value, gene SEMA6C (NM_030913, SEMA DOMAIN, TRANSMEMBRANE DOMAIN (TM), AND CYTOPLASMIC DOMAIN, (SEMAPHORIN) 6C)",(h) Nervous system development,2.77
same,"Ratio of intermediate value, gene TUBB2 (NM_001069, TUBULIN, BETA 2A)",(h) Nervous system development,3.11
same,"Ratio of intermediate value, gene TWSG1 (NM_020648, TWISTED GASTRULATION HOMOLOG 1 (DROSOPHILA))",(h) Nervous system development,2.56
same,"Ratio of intermediate value, gene GCLM (CR598364, GLUTAMATE-CYSTEINE LIGASE, MODIFIER SUBUNIT)",(i) Neuron apoptosis,2.61
same,"Ratio of intermediate value, gene GTF2A1 (BC028148, TUMOR NECROSIS FACTOR (TNF SUPERFAMILY, MEMBER 2))",(i) Neuron apoptosis,2.15
same,"Ratio of intermediate value, gene HPCAL4 (BC028066)",(i) Neuron apoptosis,6.07
same,"Ratio of intermediate value, gene KRAS2 (BC029545, V-HA-RAS HARVEY RAT SARCOMA VIRAL ONCOGENE HOMOLOG)",(i) Neuron apoptosis,2.62
same,"Ratio of intermediate value, gene LIG4 (NM_002312, LIGASE IV, DNA, ATP-DEPENDENT)",(i) Neuron apoptosis,2.19
same,"Ratio of intermediate value, gene DKFZp761B1514 (AK025742, UNCOUPLING PROTEIN 2 (MITOCHONDRIAL, PROTON CARRIER))",[1],2.39
same,"Ratio of intermediate value, gene DYRK3 (BC030009, SELENOPROTEIN P, PLASMA, 1)",[1],5.57
same,"Ratio of intermediate value, gene FTH1 (BC006523, SERUM/GLUCOCORTICOID REGULATED KINASE 2)",[1],2.13
same,"Ratio of intermediate value, gene GPX3 (NM_002084, GLUTATHIONE PEROXIDASE 3 (PLASMA))",[1],2.10
same,"Ratio of intermediate value, gene HMOX1 (NM_002133, HEME OXYGENASE (DECYCLING) 1)",[1],2.85
same,"Ratio of intermediate value, gene MOSPD1 (H18681, SULFIREDOXIN 1 HOMOLOG (S. CEREVISIAE))",[1],3.56
same,"Ratio of intermediate value, gene RPL4 (AK094940, GLUTAMATE-CYSTEINE LIGASE, CATALYTIC SUBUNIT)",[1],2.49
same,"Ratio of intermediate value, gene TXNIP (NM_006472, THIOREDOXIN INTERACTING PROTEIN)",[1],4.52
same,"Ratio of intermediate value, gene ATP10B (AB018258, ATPase, Class V, type 10B)",[2],2.03
same,"Ratio of intermediate value, gene BQ186674 (cDNA clone UI-E-EJ1-ajr-f-10-0-UI, Hypothetical gene supported by AF086204)",[2],2.79
same,"Ratio of intermediate value, gene BX111592 (Transcribed locus, moderately similar to XP_066443.6 PREDICTED: similar to paraneoplastic antigen like 6A)",[2],1.50
same,"Ratio of intermediate value, gene CGA (NM_000735, Glycoprotein hormones, alpha polypeptide)",[2],2.14
same,"Ratio of intermediate value, gene COBLL1 (BX649112, COBL-like 1)",[2],1.52
same,"Ratio of intermediate value, gene CYP19A1 (AK023571, Cytochrome P450, family 19, subfamily A, polypeptide 1)",[2],1.78
same,"Ratio of intermediate value, gene FLJ11017 (AK001879, Hypothetical protein FLJ11017)",[2],1.87
same,"Ratio of intermediate value, gene GLCCI1 (AK126731, Glucocorticoid induced transcript 1)",[2],2.27
same,"Ratio of intermediate value, gene KIAA0310 (AB002308, KIAA0310)",[2],1.59
same,"Ratio of intermediate value, gene MGC27016 (AK125877, Hypothetical protein MGC27016)",[2],2.62
same,"Ratio of intermediate value, gene NCOA3 (NM_181659, Nuclear receptor coactivator 3)",[2],1.62
same,"Ratio of intermediate value, gene RGS2 (BC042755, Regulator of G-protein signalling 2, 24 kDa)",[2],3.04
same,"Ratio of intermediate value, gene SIAT7A (BC063830, ST6 (alpha-N-acetyl-neuraminyl-2,3-beta-galactosyl-1,3)-N-acetylgalactosaminide alpha-2,6-sialyltransferase 1)",[2],1.69
same,"Ratio of intermediate value, gene SIAT8D (NM_005668, ST8 alpha-N-acetyl-neuraminide alpha-2,8-sialyltransferase 4)",[2],1.79
same,"Ratio of intermediate value, gene SLC7A8 (Y18483, Solute carrier family 7 (cationic amino acid transporter, y+ system), member 8)",[2],2.48
same,"Ratio of intermediate value, gene SLC40A1 (AK023574, Solute carrier family 40 (iron-regulated transporter), member 1)",[2],1.70
same,"Ratio of intermediate value, gene TFCP2L4 (BC036890, Grainyhead-like 3 (Drosophila))",[2],3.12
same,"Ratio of intermediate value, gene TTF2 (AB209845, Transcription termination factor, RNA polymerase II)",[2],1.81
same,"Ratio of intermediate value, gene TUBB3 (AK122757, Tubulin, beta 3)",[2],1.70
same,"Ratio of intermediate value, gene TncRNA (AF001893, Trophoblast-derived noncoding RNA)",[2],3.61

# From patent US8445207B2, “Genes based on thalidomide, valproic acid and methotrexate treatment for screening of drug inducing teratogenicity and screening method using thereof” (priority 2009, dated 2013)
